Reference: the OPERA property sets (Mansouri et al. 2018)

SMILES | logP
Cc1cccc([N+](=O)[O-])c1C(=O)NC(=O)Nc1ccc(Cl)cc1 | 3.75
O=C(NC(=O)c1c(F)cccc1F)Nc1ccc(Cl)cc1 | 3.88
CC(=O)NC(=O)Nc1ccccc1 | 1.6
CCNC(=O)NC(C)=O | -0.01
COc1ccccc1C(=O)NC(=O)Nc1ccc(Cl)cc1 | 4.35
O=C(NC(=O)c1ccccc1)Nc1ccccc1 | 3.39
CNC(N)=O | -1.4
CCNC(=O)NC(=O)c1ccccc1 | 1.92
CNC(=O)NC(=O)c1ccccc1 | 1.27
O=C(NC(=O)c1c(F)cccc1F)Nc1ccc(F)cc1 | 3.2
CNC(=O)NC(C)=O | -0.7
